# Source: ChEMBL document CHEMBL3797077, “Design and synthesis of N-(4-aminopyridin-2-yl)amides as B-Raf(V600E) inhibitors” (Bioorg Med Chem Lett, 2016)
# Experiments:
# [1] = biological target: Serine/threonine-protein kinase B-raf (Homo sapiens, UniProt P15056); assay: Inhibition of recombinant wild type full length human GST-tagged B-Raf expressed in baculovirus expression system using Z'-LYTE Ser/Thr3 peptide as substrate incubated for 1 hr by FRET-based Z'-LYTE assay
# [2] = test system: HT-29; assay: Cytotoxicity against human HT-29 cells harboring B-Raf V600E mutant assessed as growth inhibition after 72 hrs by MTT assay; type: functional, cell-based; conditions: HT-29, 72 h
# [3] = Cytotoxicity against human COLO205 cells harboring B-Raf V600E mutant assessed as growth inhibition after 72 hrs by MTT assay; type: functional, cell-based; conditions: COLO 205, 72 h
# [4] = Cytotoxicity against human HCT116 cells harboring wild type B-Raf assessed as growth inhibition after 72 hrs by MTT assay; type: functional, cell-based; conditions: HCT-116, 72 h
# [5] = biological target: Serine/threonine-protein kinase B-raf (Homo sapiens, UniProt P15056, V600E); assay: Inhibition of recombinant human N-terminal GST-tagged B-Raf V600E mutant expressed in baculovirus expression system using Z'-LYTE Ser/Thr3 peptide as substrate incubated for 1 hr by FRET-based Z'-LYTE assay
# Serine/threonine-protein kinase B-raf (Homo sapiens, UniProt P15056, V600E), sequence (P15056 2-766 V600E limits assumed): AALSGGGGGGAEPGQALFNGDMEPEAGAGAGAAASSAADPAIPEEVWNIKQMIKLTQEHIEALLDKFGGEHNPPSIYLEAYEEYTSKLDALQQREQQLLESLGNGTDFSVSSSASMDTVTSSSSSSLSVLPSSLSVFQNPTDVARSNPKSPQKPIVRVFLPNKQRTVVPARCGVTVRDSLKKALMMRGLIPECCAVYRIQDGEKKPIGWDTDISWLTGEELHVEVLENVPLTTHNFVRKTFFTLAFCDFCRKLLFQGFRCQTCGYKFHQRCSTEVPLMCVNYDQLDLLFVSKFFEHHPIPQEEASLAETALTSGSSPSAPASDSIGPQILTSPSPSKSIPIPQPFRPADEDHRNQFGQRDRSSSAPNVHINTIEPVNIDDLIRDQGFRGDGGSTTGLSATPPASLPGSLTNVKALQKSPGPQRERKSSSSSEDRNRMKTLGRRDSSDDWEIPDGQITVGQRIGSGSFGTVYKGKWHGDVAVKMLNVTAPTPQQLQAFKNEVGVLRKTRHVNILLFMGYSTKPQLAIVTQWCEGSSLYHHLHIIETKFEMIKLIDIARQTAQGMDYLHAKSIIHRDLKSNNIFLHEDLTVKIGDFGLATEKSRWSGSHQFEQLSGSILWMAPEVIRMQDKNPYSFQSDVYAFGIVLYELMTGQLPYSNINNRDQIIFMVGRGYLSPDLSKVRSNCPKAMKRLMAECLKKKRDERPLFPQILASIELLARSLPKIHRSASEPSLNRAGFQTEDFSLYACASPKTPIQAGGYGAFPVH
# [6] = test system: COLO 205; assay: Selectivity ratio of IC50 for human HCT116 cells harboring wild type B-Raf to IC50 for human COLO205 cells harboring B-Raf V600E mutant; type: functional
# [7] = test system: HCT-116; assay: Selectivity ratio of IC50 for human HCT116 cells harboring wild type B-Raf to IC50 for human HT-29 cells harboring B-Raf V600E mutant; type: functional
# Serine/threonine-protein kinase B-raf (Homo sapiens, UniProt P15056), sequence (P15056 whole entry): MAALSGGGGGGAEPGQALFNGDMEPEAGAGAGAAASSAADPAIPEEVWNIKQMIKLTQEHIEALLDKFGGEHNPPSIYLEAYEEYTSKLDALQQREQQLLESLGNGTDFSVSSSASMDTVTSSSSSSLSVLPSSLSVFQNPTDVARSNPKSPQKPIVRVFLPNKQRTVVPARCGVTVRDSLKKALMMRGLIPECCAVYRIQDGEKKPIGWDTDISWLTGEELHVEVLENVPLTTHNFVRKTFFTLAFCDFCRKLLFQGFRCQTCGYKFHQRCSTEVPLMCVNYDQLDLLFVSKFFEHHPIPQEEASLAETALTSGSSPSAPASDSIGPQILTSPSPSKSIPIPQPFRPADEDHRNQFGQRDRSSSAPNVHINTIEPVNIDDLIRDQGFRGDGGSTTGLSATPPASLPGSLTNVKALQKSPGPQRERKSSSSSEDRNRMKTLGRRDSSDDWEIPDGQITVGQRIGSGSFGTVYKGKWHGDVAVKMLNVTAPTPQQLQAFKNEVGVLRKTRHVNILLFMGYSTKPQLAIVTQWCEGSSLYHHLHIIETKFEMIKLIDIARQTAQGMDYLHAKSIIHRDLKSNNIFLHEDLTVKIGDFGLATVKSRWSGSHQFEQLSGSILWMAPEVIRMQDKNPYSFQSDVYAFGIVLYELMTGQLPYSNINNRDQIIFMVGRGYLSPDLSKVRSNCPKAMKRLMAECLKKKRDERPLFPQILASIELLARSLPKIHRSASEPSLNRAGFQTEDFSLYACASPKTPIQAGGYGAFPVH
SMILES,IC50 [1] [nM],IC50 [2] [nM],IC50 [3] [nM],IC50 [4] [nM],IC50 [5] [nM],other results
N#Cc1c(Oc2ccc(F)c(NC(=O)Cc3cccc(C(F)(F)F)c3)c2)ccc2nc(NC(=O)C3CC3)sc12,77,33,25,362,,
CCC(=O)Nc1cc(Nc2cccc(NC(=O)c3cccc(C4CC4)c3)c2)ccn1,,,,,125,
O=C(Nc1cccc(Nc2ccnc(NC(=O)C3CCCCC3)c2)c1)c1cccc(C2CC2)c1,,,,,563,
CC(C)(C)c1cccc(C(=O)Nc2cccc(Nc3ccnc(NC(=O)C4CC4)c3)c2)c1,240,991,787,1380,20,
O=C(Nc1cccc(Nc2ccnc(NC(=O)C3CC3)c2)c1)c1cccc(Cl)c1,,,,,785,
O=C(Nc1cccc(Nc2ccnc(NC(=O)C3CC3)c2)c1)c1cccc([N+](=O)[O-])c1,,,,,1510,
CC(C)(C#N)c1cccc(C(=O)Nc2cccc(Nc3ccnc(NC(=O)C4CC4)c3)c2)c1,476,94,136,1090,38,Ratio IC50 [6]: 12; Ratio IC50 [7]: 12
O=C(Nc1cccc(Nc2ccnc(NC(=O)C3CC3)c2)c1)c1ccc(C(F)(F)F)cc1,,,,,> 10000,
O=C(Nc1cccc(Nc2ccnc(NC(=O)C3CC3)c2)c1)c1cccc(C2CC2)c1,453,92,111,221,35,
CCc1cccc(C(=O)Nc2cccc(Nc3ccnc(NC(=O)C4CC4)c3)c2)c1,,,,,110,
O=C(Nc1cccc(Nc2ccnc(NC(=O)C3CCC3)c2)c1)c1cccc(C2CC2)c1,,,,,182,
N#Cc1cccc(C(=O)Nc2cccc(Nc3ccnc(NC(=O)C4CC4)c3)c2)c1,,,,,3530,
O=C(Nc1cccc(Nc2ccnc(NC(=O)C3CC3)c2)c1)c1cccc(C(F)(F)F)c1,,,,,141,
O=C(Nc1cccc(Nc2ccnc(NC(=O)C3CC3)c2)c1)c1ccccc1C(F)(F)F,,,,,> 10000,
CC(C)(C)C(=O)Nc1cc(Nc2cccc(NC(=O)c3cccc(C4CC4)c3)c2)ccn1,,,,,1030,
CC(=O)Nc1cc(Nc2cccc(NC(=O)c3cccc(C4CC4)c3)c2)ccn1,1200,236,131,367,50,
CC(C)c1cccc(C(=O)Nc2cccc(Nc3ccnc(NC(=O)C4CC4)c3)c2)c1,148,462,444,1060,13,
N#CC1(c2cccc(C(=O)Nc3cccc(Nc4ccnc(NC(=O)C5CC5)c4)c3)c2)CC1,2030,791,725,1350,79,
CC(C)C(=O)Nc1cc(Nc2cccc(NC(=O)c3cccc(C4CC4)c3)c2)ccn1,,,,,420,
Cc1cccc(C(=O)Nc2cccc(Nc3ccnc(NC(=O)C4CC4)c3)c2)c1,,,,,1210,
O=C(Nc1cccc(Nc2ccnc(NC(=O)C3CCCC3)c2)c1)c1cccc(C2CC2)c1,,,,,434,
CCCS(=O)(=O)Nc1ccc(F)c(C(=O)c2c[nH]c3ncc(-c4ccc(Cl)cc4)cc23)c1F [VEMURAFENIB],,156,44,14600,,
